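Compound exposure: 48 hours, 5 concentrations, 96-well plates. Abbreviation: GI50, concentration required for 50% inhibition of growth.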 Activity calls are given as the source filed them. Rule as the data show it: active = GI50 up to about 1.1 µM and inactive = higher.
Assays:
Experiment in all cases: inhibition of tumour cell growth, NCI panel, 48 h
[1] = test system: CAKI-1
[2] = test system: COLO 205
[3] = test system: HCC 2998
[4] = test system: HOP-62
[5] = test system: HT-29
[6] = test system: LOX IMVI
[7] = test system: NCI-H226
[8] = test system: NCI/ADR-RES
[9] = test system: OVCAR-4
[10] = test system: RPMI-8226
[11] = test system: RXF 393
[12] = test system: SF-268
[13] = test system: SK-MEL-28
[14] = test system: SN12C
[15] = test system: SNB-19
[16] = test system: U-251
[17] = test system: DU-145
[18] = test system: M14
[19] = test system: MDA-MB-435
[20] = test system: SR

| SMILES | GI50 [1] | GI50 [2] | GI50 [3] | GI50 [4] | GI50 [5] | GI50 [6] | GI50 [7] | GI50 [8] | GI50 [9] | GI50 [10] | GI50 [11] | GI50 [12] | GI50 [13] | GI50 [14] | GI50 [15] | GI50 [16] | GI50 [17] | GI50 [18] | GI50 [19] | GI50 [20] |
| --- | --- | --- | --- | --- | --- | --- | --- | --- | --- | --- | --- | --- | --- | --- | --- | --- | --- | --- | --- | --- |
| CC(C)=CC(=O)OC1C2C(C)C(=O)OC2C(O)C(C)C2C=CC(=O)C21C (stereo unspecified) | 3.24 µM (inactive) | 1.87 µM (inactive) | 5.47 µM (inactive) | 8.02 µM (inactive) | 3.21 µM (inactive) | 0.918 µM (active) | 5.22 µM (inactive) | 4.3 µM (inactive) | 3.13 µM (inactive) | 1.48 µM (inactive) | 1.28 µM (inactive) | 1.57 µM (inactive) | 1.34 µM (inactive) | 3.69 µM (inactive) | 7.38 µM (inactive) | 4.06 µM (inactive) |  |  |  |  |
| CC(C)CCCCCCCCCCCCC(=O)NCC(=O)NC1C(C)OC(Nc2ncnc3c2ncn3C)C(O)C1O (stereo unspecified) | 0.805 µM (active) | 3.81 µM (inactive) | 1.28 µM (inactive) | 2.21 µM (inactive) | 4.2 µM (inactive) | 5.3 µM (inactive) | 2.16 µM (inactive) | > 100 µM (inactive) | 6.41 µM (inactive) | 2.43 µM (inactive) | 2.89 µM (inactive) | 3.21 µM (inactive) | > 100 µM (inactive) | 3.5 µM (inactive) | 2.88 µM (inactive) | 1.21 µM (inactive) |  |  |  |  |
| Oc1cc(-c2ccc(F)cc2)nc2ncccc12 | 70.5 µM (inactive) | 20.2 µM (inactive) | > 100 µM (inactive) | 98.2 µM (inactive) | 42.7 µM (inactive) | 45.5 µM (inactive) | 24.3 µM (inactive) | 32.9 µM (inactive) | 78.9 µM (inactive) | 37.1 µM (inactive) |  | 62.1 µM (inactive) | > 100 µM (inactive) | > 100 µM (inactive) | 80.2 µM (inactive) |  | 74.6 µM (inactive) | 61.5 µM (inactive) |  |  |
| CN(CC(=O)N1CC(CCl)c2ccc([N+](=O)[O-])cc21)CC(=O)N1CC(CCl)c2ccc([N+](=O)[O-])cc21 (stereo unspecified) | > 100 µM (inactive) | > 100 µM (inactive) | > 100 µM (inactive) | > 100 µM (inactive) | > 100 µM (inactive) | > 100 µM (inactive) | > 100 µM (inactive) | > 100 µM (inactive) |  | 95.9 µM (inactive) |  | > 100 µM (inactive) | > 100 µM (inactive) | > 100 µM (inactive) | > 100 µM (inactive) | > 100 µM (inactive) | > 100 µM (inactive) | > 100 µM (inactive) | 83.9 µM (inactive) |  |
| ClC1=NN=C(c2c[nH]c3ccccc23)CC1NCc1ccccc1 (stereo unspecified) | > 100 µM (inactive) | > 100 µM (inactive) |  | > 100 µM (inactive) | > 100 µM (inactive) | > 100 µM (inactive) | > 100 µM (inactive) | > 100 µM (inactive) |  | > 100 µM (inactive) | > 100 µM (inactive) | > 100 µM (inactive) | > 100 µM (inactive) | > 100 µM (inactive) | > 100 µM (inactive) | > 100 µM (inactive) | > 100 µM (inactive) | > 100 µM (inactive) | > 100 µM (inactive) |  |
| CN1N=C(c2ccncc2)OC1c1ccc(C(F)(F)F)cc1 (stereo unspecified) |  | > 100 µM (inactive) | > 100 µM (inactive) | 82.8 µM (inactive) | > 100 µM (inactive) | > 100 µM (inactive) | 39.1 µM (inactive) | > 100 µM (inactive) | > 100 µM (inactive) | > 100 µM (inactive) | > 100 µM (inactive) | > 100 µM (inactive) | > 100 µM (inactive) | > 100 µM (inactive) | > 100 µM (inactive) | 91 µM (inactive) | > 100 µM (inactive) | > 100 µM (inactive) | > 100 µM (inactive) |  |
| Oc1cccc(-c2ccc3c4c2O[C@H]2c5[nH]c6ccccc6c5C[C@@]5(O)[C@@H](C3)N(CC3CC3)CC[C@]425)c1 | 1.75 µM (inactive) | 2.44 µM (inactive) |  |  | 1.7 µM (inactive) | 1.8 µM (inactive) | 3.75 µM (inactive) | 2.11 µM (inactive) | 1.61 µM (inactive) |  | 1.35 µM (inactive) | 1.68 µM (inactive) |  | 1.67 µM (inactive) | 1.64 µM (inactive) |  | 1.87 µM (inactive) | 1.7 µM (inactive) | 1.72 µM (inactive) |  |
| Cn1c(=O)c2c(no[n+]2[O-])n(C)c1=O | 19.3 µM (inactive) | 23 µM (inactive) | > 100 µM (inactive) | 18.4 µM (inactive) | 31.2 µM (inactive) | > 100 µM (inactive) | 18.2 µM (inactive) | 22.9 µM (inactive) | 59.8 µM (inactive) | > 100 µM (inactive) | 27.7 µM (inactive) | 25.6 µM (inactive) |  | 39.3 µM (inactive) | 22.3 µM (inactive) | 22.6 µM (inactive) |  | > 100 µM (inactive) | 20 µM (inactive) | > 100 µM (inactive) |
| CCCOP(=O)(OCCC)OC(C(F)(F)F)C(F)(F)F |  |  | > 100 µM (inactive) | > 100 µM (inactive) | > 100 µM (inactive) | > 100 µM (inactive) | > 100 µM (inactive) |  |  | > 100 µM (inactive) | 44.9 µM (inactive) |  | > 100 µM (inactive) | > 100 µM (inactive) | > 100 µM (inactive) | > 100 µM (inactive) | > 100 µM (inactive) | > 100 µM (inactive) | > 100 µM (inactive) | > 100 µM (inactive) |
| CCCCn1c(-c2ccc([N+](=O)[O-])cc2)cs/c1=N/N=C1\C(=O)Nc2ccc(Br)cc21 | 21.4 µM (inactive) | 13.6 µM (inactive) | 17.9 µM (inactive) | 15.7 µM (inactive) | 13.3 µM (inactive) | 18.9 µM (inactive) | 21.1 µM (inactive) | 17.1 µM (inactive) | 12.6 µM (inactive) |  | 8 µM (inactive) | 29.9 µM (inactive) | 29.4 µM (inactive) | 3.78 µM (inactive) | 21.8 µM (inactive) | 10.4 µM (inactive) | 13.8 µM (inactive) | 12.1 µM (inactive) | 14.1 µM (inactive) |  |
| CN1OC(=O)N(C)C1c1ccccc1 (stereo unspecified) |  | > 100 µM (inactive) | > 100 µM (inactive) | > 100 µM (inactive) | > 100 µM (inactive) | > 100 µM (inactive) | > 100 µM (inactive) | > 100 µM (inactive) | > 100 µM (inactive) | > 100 µM (inactive) | > 100 µM (inactive) | > 100 µM (inactive) | > 100 µM (inactive) | > 100 µM (inactive) | > 100 µM (inactive) | > 100 µM (inactive) |  |  |  |  |
| CCOC(=O)NNC(=O)NCCCCNC(=O)NNC(=O)OCC | > 100 µM (inactive) | > 100 µM (inactive) |  | > 100 µM (inactive) | > 100 µM (inactive) | > 100 µM (inactive) | > 100 µM (inactive) | > 100 µM (inactive) |  | > 100 µM (inactive) | > 100 µM (inactive) |  | > 100 µM (inactive) | > 100 µM (inactive) | > 100 µM (inactive) | > 100 µM (inactive) | > 100 µM (inactive) | > 100 µM (inactive) | > 100 µM (inactive) |  |
